Measurements published in patent US20140073634A1 (Institute For Applied Cancer Science/The University of …, priority 2012, published 2014).

Test system: 293T-HRE-GFP-luc cells
Experiment: Cell-based reporter assay for IC50 determinations (HRE-luciferase, hypoxia)
Conditions: 6 h, 6 hrs hypoxia (1% O2), luminescence
Outline: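 293T-HRE-GFP-luc cells were pre-incubated with serially diluted compounds for 30 min under normoxia, then held 6 hrs in hypoxia (1% O2, 37° C). HRE-driven luciferase read by Steadylite Plus luminescence; IC50 from four-parameter logistic fit.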

## CN1CCN(c2cc(Cn3cc(-c4cc(-c5ccc(OC(F)(F)F)cc5)on4)ccc3=O)ccn2)CC1 [Example 97a, 1-((2-(4-Methylpiperazin-1-yl)pyridin-4-yl)methyl)-5-(5-(4-(trifluoromethoxy)phenyl)isoxazol-3-yl)pyridin-2(1H)-one]
  IC50: < 100 nM

## CN1CCN(c2cc(Cn3cc(-c4cc(-c5ccc(OC(F)(F)F)cc5)no4)ccc3=O)ccn2)CC1 [Example 97b, 1-((2-(4-methylpiperazin-1-yl)pyridin-4-yl)methyl)-5-(3-(4-(trifluoromethoxy)phenyl)isoxazol-5-yl)pyridin-2(1H)-one]
  IC50: < 100 nM

## CS(=O)(=O)C1CCN(c2cccc(Cn3cc(-c4cc(-c5ccc(OC(F)(F)F)cc5)no4)ccc3=O)c2)CC1 [Example 98, 1-(3-(4-(Methylsulfonyl)piperidin-1-yl)benzyl)-5-(3-(4-(trifluoromethoxy)phenyl)isoxazol-5-yl)pyridin-2(1H)-one]
  IC50: < 100 nM

## CS(=O)(=O)C1CCN(c2cccc(Cn3cc(-c4cc(-c5ccc(OC(F)(F)F)cc5)on4)ccc3=O)c2)CC1 [Example 99, 1-(3-(4-(Methylsulfonyl)piperidin-1-yl)benzyl)-5-(5-(4-(trifluoromethoxy)phenyl)isoxazol-3-yl)pyridin-2(1H)-one]
  IC50: < 100 nM

## CN1CCN(c2cccc(Cn3cc(-c4nnc(-c5ccc(OC(F)(F)F)cc5)o4)ccc3=O)c2)CC1 [Example 100, 1-Methyl-4-(3-((2-oxo-5-(5-(4-(trifluoromethoxy)phenyl)-1,3,4-oxadiazol-2-yl)pyridin-1(2H)-yl)methyl)phenyl)piperazin-1-ium 2,2,2-trifluoroacetate]
  IC50: < 100 nM

## CN1CCN(c2cc(Cn3cc(-c4nnc(-c5ccc(OC(F)(F)F)cc5)o4)ccc3=O)ccn2)CC1 [Example 101, 1-Methyl-4-(4-((2-oxo-5-(5-(4-(trifluoromethoxy)phenyl)-1,3,4-oxadiazol-2-yl)pyridin-1(2H)-yl)methyl)pyridin-2-yl)piperazin-1-ium 2,2,2-trifluoroacetate]
  IC50: 100 to 1000 nM

## COCCOc1cccc(Cn2cc(-c3nnc(-c4ccc(OC(F)(F)F)cc4)o3)ccc2=O)c1 [Example 102]
  IC50: < 100 nM

## CC(C)(O)c1cccc(Cn2cc(-c3nnc(-c4ccc(OC(F)(F)F)cc4)o3)ccc2=O)c1 [Example 103]
  IC50: < 100 nM

## CS(=O)(=O)CCCOc1cccc(Cn2cc(-c3nnc(-c4ccc(OC(F)(F)F)cc4)o3)ccc2=O)c1 [Example 104]
  IC50: < 100 nM

## CS(=O)(=O)C1CCN(c2cccc(Cn3cc(-c4nnc(-c5ccc(OC(F)F)cc5)o4)ccc3=O)c2)CC1 [Example 105, 5-(5-(4-(Difluoromethoxy)phenyl)-1,3,4-oxadiazol-2-yl)-1-(3-(4-(methylsulfonyl)piperidin-1-yl)benzyl)pyridin-2(1H)-one]
  IC50: < 100 nM

## CC(C)Oc1ccc(-c2nnc(-c3ccc(=O)n(Cc4cccc(N5CCC(S(C)(=O)=O)CC5)c4)n3)o2)cc1 [Example 106, 6-(5-(4-Isopropoxyphenyl)-1,3,4-oxadiazol-2-yl)-2-(3-(4-(methylsulfonyl)piperidin-1-yl)benzyl)pyridazin-3(2H)-one]
  IC50: < 100 nM

## COC(=O)c1cccc(Cn2cc(-c3nc(-c4ccc(OC(F)(F)F)cc4)no3)ccc2=O)c1 [Example 107, methyl 3-((2-oxo-5-(3-(4-(trifluoromethoxy)phenyl)-1,2,4-oxadiazol-5-yl)pyridin-1(2H)-yl)methyl)benzoate]
  IC50: 100 to 1000 nM

## O=c1ccc(-c2nc(-c3ccc(OC(F)(F)F)cc3)no2)nn1Cc1ccc(F)c(Br)c1 [Example 108, 2-(3-bromo-4-fluorobenzyl)-6-(3-(4-(trifluoromethoxy)phenyl)-1,2,4-oxadiazol-5-yl)pyridazin-3(2H)-one]
  IC50: 100 to 1000 nM

## COC(=O)c1cccc(Cn2nc(-c3nc(-c4ccc(OC(F)(F)F)cc4)no3)ccc2=O)c1 [Example 109, methyl 3-((6-oxo-3-(3-(4-(trifluoromethoxy)phenyl)-1,2,4-oxadiazol-5-yl)pyridazin-1(6H)-yl)methyl)benzoate]
  IC50: 100 to 1000 nM

## O=C(c1cccc(Cn2nc(-c3nc(-c4ccc(OC(F)(F)F)cc4)no3)ccc2=O)c1)N1CCOCC1 [Example 110, 2-(3-(morpholine-4-carbonyl)benzyl)-6-(3-(4-(trifluoromethoxy)phenyl)-1,2,4-oxadiazol-5-yl)pyridazin-3(2H)-one]
  IC50: 100 to 1000 nM

## O=c1ccc(-c2nc(-c3ccc(OC(F)(F)F)cc3)no2)nn1Cc1ccc(F)c(N2CCOCC2)c1 [Example 111, 2-(4-fluoro-3-morpholinobenzyl)-6-(3-(4-(trifluoromethoxy)phenyl)-1,2,4-oxadiazol-5-yl)pyridazin-3(2H)-one]
  IC50: < 100 nM

## CN1CCN(C(=O)c2cccc(Cn3nc(-c4nc(-c5ccc(OC(F)(F)F)cc5)no4)ccc3=O)c2)CC1 [Example 112, 2-(3-(4-methylpiperazine-1-carbonyl)benzyl)-6-(3-(4-(trifluoromethoxy)phenyl)-1,2,4-oxadiazol-5-yl)pyridazin-3(2H)-one]
  IC50: 100 to 1000 nM

## CN1CCN(c2cc(Cn3nc(-c4nc(-c5ccc(OC(F)(F)F)cc5)no4)ccc3=O)ccc2F)CC1 [Example 113, 2-(4-fluoro-3-(4-methylpiperazin-1-yl)benzyl)-6-(3-(4-(trifluoromethoxy)phenyl)-1,2,4-oxadiazol-5-yl)pyridazin-3(2H)-one]
  IC50: < 100 nM

## O=C(c1cccc(Cn2cc(-c3nc(-c4ccc(OC(F)(F)F)cc4)no3)ccc2=O)c1)N1CCOCC1 [Example 114, 1-(3-(morpholine-4-carbonyl)benzyl)-5-(3-(4-(trifluoromethoxy)phenyl)-1,2,4-oxadiazol-5-yl)pyridin-2(1H)-one]
  IC50: < 100 nM

## CN1CCN(C(=O)c2cccc(Cn3cc(-c4nc(-c5ccc(OC(F)(F)F)cc5)no4)ccc3=O)c2)CC1 [Example 115, 1-(3-(4-methylpiperazine-1-carbonyl)benzyl)-5-(3-(4-(trifluoromethoxy)phenyl)-1,2,4-oxadiazol-5-yl)pyridin-2(1H)-one]
  IC50: < 100 nM

## CN1CCN(c2cccc(Cn3cc(-c4nc(-c5ccc(OC(F)(F)F)cc5)no4)ccc3=O)c2)CC1 [Example 116, 1-(3-(4-methylpiperazin-1-yl)benzyl)-5-(3-(4-(trifluoromethoxy)phenyl)-1,2,4-oxadiazol-5-yl)pyridin-2(1H)-one]
  IC50: < 100 nM

## COC(=O)c1cc(Cn2nc(-c3nc(-c4ccc(OC(F)(F)F)cc4)no3)ccc2=O)ccn1 [Example 117, methyl 4-((6-oxo-3-(3-(4-(trifluoromethoxy)phenyl)-1,2,4-oxadiazol-5-yl)pyridazin-1(6H)-yl)methyl)picolinate]
  IC50: 1000 to 10000 nM

## CS(=O)(=O)c1cccc(Cn2nc(-c3nc(-c4ccc(OC(F)(F)F)cc4)no3)ccc2=O)c1 [Example 118, 2-(3-(methylsulfonyl)benzyl)-6-(3-(4-(trifluoromethoxy)phenyl)-1,2,4-oxadiazol-5-yl)pyridazin-3(2H)-one]
  IC50: < 100 nM

## NS(=O)(=O)c1cccc(Cn2nc(-c3nc(-c4ccc(OC(F)(F)F)cc4)no3)ccc2=O)c1 [Example 119]
  IC50: < 100 nM

## N#Cc1cccc(Cn2nc(-c3nc(-c4ccc(OC(F)(F)F)cc4)no3)ccc2=O)c1 [Example 120, 3-((6-oxo-3-(3-(4-(trifluoromethoxy)phenyl)-1,2,4-oxadiazol-5-yl)pyridazin-1(6H)-yl)methyl)benzonitrile]
  IC50: < 100 nM
